{"source": "patent US20200399329A1", "about": "“ANTIMICROBIAL PEPTIDES” (priority 2015, published 2020)", "key": {"[1]": {"test_system": "E. coli", "assay": "Antimicrobial activity after pre-treatment of peptide with Proteinase-K", "format": "cell-based", "conditions": "12.5 μM peptide pre-treated with 20 ng ProtK for 2 hours at 37° C., 18 hours", "method": "The susceptibility of OMN6/CecA to proteolytic degradation was assessed and the effects of stability on activity were determined. Native peptide-CecA and engineered peptide-OMN6 were incubated with 20 ng of Proteinase-K (ProtK) at 37° C. for two hours (left bars and right bars, respectively). E. coli at 500,000 CFU/ml were incubated for 18 hours with either CecA or OMN6 pretreated with ProtK. After the incubation, bacterial survival was determined via absorption at OD600 nm and via CFU count on agar plates."}, "[2]": {"test_system": "human primary erythrocytes", "assay": "Hemolysis, cell count and MCV of human primary erythrocytes", "format": "cell-based", "method": "Since the peptides of the invention are intended inter-alia to operate in wounds or other damaged tissue, a direct contact with patients' blood may occur. Accordingly, an experiment was conducted in order to assess whether OMN6 has cytotoxic effects on human primary erythrocytes. These cells lack any defense mechanism to protect them against damage to the plasma membrane and therefor are a standard model for evaluating cytotoxic effects on eukaryotic cells. The parameter that was measured was the ability of OMN6 to cause hemolysis, red blood cells death, in human erythrocytes. The experiments were performed on human blood samples using ABX PENTRA DF120 machine routinely used by hospital personnel to conduct such tests.\nThe Mean Corpuscular Volume (MCV) of the erythrocytes is a well-accepted indication of the cells' health and membrane integrity. The experiment was conducted to assess whether OMN6, which forms pores in bacterial membranes, has the ability to damage human cells plasma-membrane. […] (Table 5).\nTable 4 and Table 5: hemolysis and Mean Corpuscular Values (MCV) of human primary erythrocytes were evaluated after treatment with OMN6."}, "[3]": {"test_system": "E. coli ESBL BAA-198", "format": "cell-based, Escherichia coli", "method": "(§1) In order to determine the MIC values of the peptides, growth and inhibition of various bacteria were monitored after treatment with the peptides of the invention (Table 6).\n(§2) E. coli bacteria were cultured with or without OMN6 in increasing concentrations of 0.8-200 μM and with or without Fetal Bovine Serum 10% for 17-20 hours. The growth of the bacteria was continuously monitored via spectrophotometry at 600 nm. As bacterial growth progresses, OD600 nm values rise, and where the growth is inhibited OD600 nm values remain constant.\n(§3) The experimental system and parameters described here were used to determine the MIC values of OMN2, OMN6, OMN7 and OMN11 on various bacteria strains (Table 7 and Table 8)."}, "[4]": {"test_system": "E. coli Sens. 25922", "format": "cell-based, Escherichia coli", "method": "as §1, §2, §3"}, "[5]": {"test_system": "A. baumannii BAA-1793", "format": "cell-based, Acinetobacter baumannii", "conditions": "FIG. 7", "method": "In order to determine the Minimal Bactericidal Concentration (MBC) values of the peptides, colony formation of various bacteria strains was monitored and determined after treatment with the peptides of the invention. Multi-Drug Resistant A. baumannii bacteria were cultured with or without OMN6 in increasing concentrations, as is detailed in FIG. 6 and Example 6. Immediately afterwards, samples of each experimental group were diluted to 1×10^4 to 1×10^6 as necessary, and further, the samples were plated on appropriate medium-agar plates. All the plates were incubated at 37° C. for 24-48 hours. Colonies were counted and CFU/ml in the original sample, prior to plating, were calculated and determined. An example of the plates, after incubation, is presented in FIG. 7 where the plate on the left side of the image is the CTRL sample treated with DDW and in the right side of the image increasing concentrations of OMN6 are presented, as specified therein.\nThe experimental system and parameters described here were used to determine the MBC values of OMN2, OMN6, OMN7 and OMN11 on various bacteria strains with and without the supplementation of 10% FBS (Table 6 and Table 8)."}}, "note": "Read-outs that look alike come from different tables or passages of the source. Where a SMILES comes first, the peptide text is derived from it."}
{"smiles": "CC[C@H](C)[C@H](NC(=O)CNC(=O)[C@H](CC(=O)O)NC(=O)[C@H](CCCNC(=N)N)NC(=O)[C@@H](NC(=O)[C@H](CC(N)=O)NC(=O)[C@H](CCC(N)=O)NC(=O)CNC(=O)[C@@H](NC(=O)[C@H](CCCCN)NC(=O)[C@H](CCC(=O)O)NC(=O)[C@@H](NC(=O)[C@H](CCCCN)NC(=O)[C@H](CCCCN)NC(=O)[C@H](Cc1ccccc1)NC(=O)[C@H](CC(C)C)NC(=O)[C@H](CCCCN)NC(=O)[C@H](Cc1c[nH]c2ccccc12)NC(=O)[C@H](CCCCN)NC(=O)[C@H](CS)NC(=O)[C@@H](N)CCSC)[C@@H](C)CC)C(C)C)[C@@H](C)CC)C(=O)N[C@H](C(=O)N[C@@H](CCCCN)C(=O)N[C@@H](C)C(=O)NCC(=O)N1CCC[C@H]1C(=O)N[C@@H](C)C(=O)N[C@H](C(=O)N[C@@H](C)C(=O)N[C@H](C(=O)N[C@H](C(=O)NCC(=O)N[C@@H](CCC(N)=O)C(=O)N[C@@H](C)C(=O)N[C@H](C(=O)N[C@@H](CCC(N)=O)C(=O)N[C@H](C(=O)N[C@@H](C)C(=O)N[C@@H](CCCCN)C(=O)N[C@@H](CS)C(N)=O)[C@@H](C)CC)[C@@H](C)O)C(C)C)C(C)C)C(C)C)[C@@H](C)CC", "note": "[OMN6] (H-MCKWKLFKKIEKVGQNIRDGIIKAGPAVAVVGQATQIAKC-NH2; N-terminus and C-terminus assumed)", "values": [{"measurement": "Bacterial survival/growth as percent of CTRL group", "setting": "[1]", "value": "less than 10%"}, {"measurement": "Erythrocytes Mean Corpuscular Volume (MCV)", "setting": "[2]; OMN6 10 μM, 30 min", "value": 64}, {"measurement": "Number of live erythrocytes", "setting": "[2]; OMN6 10 μM, 30 min", "value": 1.69, "unit": "cells*10^6/ml"}, {"measurement": "Erythrocytes Mean Corpuscular Volume (MCV)", "setting": "[2]; OMN6 10 μM, 60 min", "value": 64}, {"measurement": "Number of live erythrocytes", "setting": "[2]; OMN6 10 μM, 60 min", "value": 1.66, "unit": "cells*10^6/ml"}, {"measurement": "Erythrocytes Mean Corpuscular Volume (MCV)", "setting": "[2]; OMN6 10 μM, 120 min", "value": 63}, {"measurement": "Number of live erythrocytes", "setting": "[2]; OMN6 10 μM, 120 min", "value": 1.68, "unit": "cells*10^6/ml"}, {"measurement": "Erythrocytes Mean Corpuscular Volume (MCV)", "setting": "[2]; OMN6 10 μM, 180 min", "value": 64}, {"measurement": "Number of live erythrocytes", "setting": "[2]; OMN6 10 μM, 180 min", "value": 1.67, "unit": "cells*10^6/ml"}, {"measurement": "Erythrocytes Mean Corpuscular Volume (MCV)", "setting": "[2]; OMN6 20 μM, 30 min", "value": 64}, {"measurement": "Number of live erythrocytes", "setting": "[2]; OMN6 20 μM, 30 min", "value": 1.65, "unit": "cells*10^6/ml"}, {"measurement": "Erythrocytes Mean Corpuscular Volume (MCV)", "setting": "[2]; OMN6 20 μM, 60 min", "value": 64}, {"measurement": "Number of live erythrocytes", "setting": "[2]; OMN6 20 μM, 60 min", "value": 1.70, "unit": "cells*10^6/ml"}, {"measurement": "Erythrocytes Mean Corpuscular Volume (MCV)", "setting": "[2]; OMN6 20 μM, 120 min", "value": 63}, {"measurement": "Number of live erythrocytes", "setting": "[2]; OMN6 20 μM, 120 min", "value": 1.71, "unit": "cells*10^6/ml"}, {"measurement": "Erythrocytes Mean Corpuscular Volume (MCV)", "setting": "[2]; OMN6 20 μM, 180 min", "value": 64}, {"measurement": "Number of live erythrocytes", "setting": "[2]; OMN6 20 μM, 180 min", "value": 1.70, "unit": "cells*10^6/ml"}, {"measurement": "Erythrocytes Mean Corpuscular Volume (MCV)", "setting": "[2]; OMN6 40 μM, 30 min", "value": 64}, {"measurement": "Number of live erythrocytes", "setting": "[2]; OMN6 40 μM, 30 min", "value": 1.60, "unit": "cells*10^6/ml"}, {"measurement": "Erythrocytes Mean Corpuscular Volume (MCV)", "setting": "[2]; OMN6 40 μM, 60 min", "value": 64}, {"measurement": "Number of live erythrocytes", "setting": "[2]; OMN6 40 μM, 60 min", "value": 1.80, "unit": "cells*10^6/ml"}, {"measurement": "Erythrocytes Mean Corpuscular Volume (MCV)", "setting": "[2]; OMN6 40 μM, 120 min", "value": 63}, {"measurement": "Number of live erythrocytes", "setting": "[2]; OMN6 40 μM, 120 min", "value": 1.77, "unit": "cells*10^6/ml"}, {"measurement": "Erythrocytes Mean Corpuscular Volume (MCV)", "setting": "[2]; OMN6 40 μM, 180 min", "value": 64}, {"measurement": "Number of live erythrocytes", "setting": "[2]; OMN6 40 μM, 180 min", "value": 1.76, "unit": "cells*10^6/ml"}, {"measurement": "Hemolysis of human erythrocytes", "setting": "[2]; human blood samples", "value": "hemolysis of cells did not occur"}, {"measurement": "MIC", "setting": "[3]", "value": 5, "unit": "µM"}, {"measurement": "MIC value", "setting": "[4]; Sens. 25922", "value": 6.25, "unit": "µM"}, {"measurement": "Minimal Inhibitory Conc. (MIC)", "setting": "[4]; Sens. 25922, 17 h", "value": 12.5, "unit": "µM"}, {"measurement": "Colony formation of Multi-Drug Resistant A. baumannii after plating", "setting": "[5]; OMN6 0.62 μM and 1.25 μM", "value": "no inhibition of growth"}, {"measurement": "Colony formation of Multi-Drug Resistant A. baumannii after plating", "setting": "[5]; OMN6 2.5 μM, 5 μM and 10 μM", "value": "void of colonies"}]}
